Columns and labels:
Test in all cases: relative viability (nuclei count vs DMSO), 5 days (fraction); higher = more cells survive
[1] = compound: CC[C@H](C)N1C=C(C2=C(C=C(C=C21)C3=CN=C(C=C3)N4CCNCC4)C(=O)NCC5=C(C=C(NC5=O)C)C)C [GSK126] + COc1cc2c(Oc3ccc(NC(=O)C4(C(=O)Nc5ccc(F)cc5)CC4)cc3F)ccnc2cc1OCCCN1CCOCC1 [Foretinib] (partner 0.25 µM)
In short: (§1)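 After 5 days of treatment, lung cancer cells in 1536-well plates were fixed and stained in a single step (final 0.05% Triton X-100, 1% formaldehyde, 1 ug/ml Hoechst) and their nuclei counted on 4× images. Treatment had been applied by pin tool the day after seeding as one drug alone or as a fixed anchor-drug dose with five library-drug doses (not always all listed) in √10 steps. Relative viability is the nuclei count of treated wells divided by that of vehicle wells, and values are medians of duplicate plates.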

[2] = compound: NS(=O)(=O)OC[C@@H]1C[C@@H](n2ccc3c(N[C@H]4CCc5ccccc54)ncnc32)C[C@@H]1O [MLN4924] + COc1cccc2cc(-c3nc([C@H]4CC[C@H](C(=O)O)CC4)n4ncnc(N)c34)[nH]c12 [OSI-027] (partner 0.5 µM)
In short: as §1

[3] = compound: C1CC(C1)(C(=O)O)C(=O)O.[NH2-].[NH2-].[Pt+2] [Carboplatin] + Nc1nc2[nH]cc(CCc3ccc(C(=O)N[C@@H](CCC(=O)O)C(=O)O)cc3)c2c(=O)[nH]1 [Pemetrexed] (partner 0.2 µM)
In short: as §1

[4] = compound: C1CC(C1)(C(=O)O)C(=O)O.[NH2-].[NH2-].[Pt+2] [Carboplatin] + CCNC(=O)c1noc(-c2cc(C(C)C)c(O)cc2O)c1-c1ccc(CN2CCOCC2)cc1 [Luminespib] (partner 0.01 µM)
In short: as §1

Row | Cell Line | relative viability ([1]; first compound 0.08 µM) | relative viability ([1]; first compound 0.253 µM) | relative viability ([1]; first compound 0.8 µM) | relative viability ([1]; first compound 2.53 µM) | relative viability ([1]; first compound 8 µM) | relative viability ([2]; first compound 0.04 µM) | relative viability ([2]; first compound 0.1265 µM) | relative viability ([2]; first compound 0.4 µM) | relative viability ([2]; first compound 1.265 µM) | relative viability ([2]; first compound 4 µM) | relative viability ([3]; first compound 0.08 µM) | relative viability ([3]; first compound 0.253 µM) | relative viability ([3]; first compound 0.8 µM) | relative viability ([3]; first compound 2.53 µM) | relative viability ([3]; first compound 8 µM) | relative viability ([4]; first compound 0.08 µM) | relative viability ([4]; first compound 0.253 µM) | relative viability ([4]; first compound 0.8 µM) | relative viability ([4]; first compound 2.53 µM) | relative viability ([4]; first compound 8 µM)
1 | 201T | 1.17 | 1.1 | 1.11 | 1.37 | 1.33 | 0.824 | 0.857 | 0.46 | 0.139 | 0.115 | 0.362 | 0.343 | 0.344 | 0.36 | 0.327 | 1.02 | 1.06 | 1.1 | 0.988 | 1
2 | NCI-H23 | 1 | 0.313 | 0.901 | 1.03 | 0.98 | 0.514 | 0.497 | 0.244 | 0.136 | 0.177 | 0.707 | 0.648 | 0.634 | 0.564 | 0.631 | 0.194 | 0.237 | 0.208 | 0.173 | 0.233
3 | LCLC-103H | 0.86 | 0.744 | 0.738 | 0.926 | 0.814 | 0.467 | 0.491 | 0.539 | 0.178 | 0.156 | 0.448 | 0.479 | 0.468 | 0.517 | 0.474 | 0.918 | 1.09 | 0.859 | 0.908 | 0.905
4 | NCI-H2087 | 1.2 | 0.999 | 1.05 | 1.28 | 1.13 | 0.41 | 0.498 | 0.516 | 0.14 | 0.104 | 0.619 | 0.647 | 0.618 | 0.632 | 0.604 | 0.158 | 0.168 | 0.121 | 0.138 | 0.165
